Experiments:
[1] = molecular target: T1, GK-GKRP (Homo sapiens, UniProt Q14397); test: biochemical; conditions: GK-GKRP IC50 (Binding)
T1 sequence (Q14397 1-625): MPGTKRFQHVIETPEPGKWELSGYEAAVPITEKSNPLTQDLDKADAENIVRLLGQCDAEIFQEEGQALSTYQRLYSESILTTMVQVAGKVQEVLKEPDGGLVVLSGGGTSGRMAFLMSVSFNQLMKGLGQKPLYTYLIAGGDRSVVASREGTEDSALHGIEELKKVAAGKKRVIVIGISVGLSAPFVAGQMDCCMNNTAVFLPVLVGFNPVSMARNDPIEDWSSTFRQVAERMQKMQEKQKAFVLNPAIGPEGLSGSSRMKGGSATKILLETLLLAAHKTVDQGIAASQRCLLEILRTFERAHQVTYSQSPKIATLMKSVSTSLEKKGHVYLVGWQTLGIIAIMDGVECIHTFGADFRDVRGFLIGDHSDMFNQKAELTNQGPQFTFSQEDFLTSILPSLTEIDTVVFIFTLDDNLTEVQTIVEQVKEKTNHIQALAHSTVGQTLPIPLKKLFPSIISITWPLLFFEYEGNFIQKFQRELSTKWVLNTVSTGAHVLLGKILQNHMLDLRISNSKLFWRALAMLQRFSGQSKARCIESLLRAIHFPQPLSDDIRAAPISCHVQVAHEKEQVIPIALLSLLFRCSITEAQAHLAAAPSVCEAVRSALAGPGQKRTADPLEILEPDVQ

[2] = molecular target: T1, GK-GKRP; test: biochemical

Structure (SMILES) | IC50 [1] [nM] | EC50 [2] [nM]
Nc1ccc(S(=O)(=O)N2CCN(c3ncc(C(O)(C(F)(F)F)C(F)(F)F)cn3)C(C#CC3CC3)C2)cn1 (centres unmarked) [Example 246, 2-(2-(4-((6-amino-3-pyridinyl)sulfonyl)-2-(cyclopropylethynyl)-1-piperazinyl)-5-pyrimidinyl)-1,1,1,3,3,3-hexafluoro-2-propanol] | 191 | 314
O=S(=O)(c1ccccc1)c1ccc(-c2ncc(C(O)(C(F)(F)F)C(F)(F)F)cn2)cc1 [Example 263, 1,1,1,3,3,3-hexafluoro-2-(2-(4-(phenylsulfonyl)phenyl)-5-pyrimidinyl)-2-propanol] | 484 | 478
Nc1ccc(S(=O)(=O)c2ccc(-c3ncc(C(O)(C(F)(F)F)C(F)(F)F)cn3)cn2)cn1 [Example 267, 2-(2-(6-((6-amino-3-pyridinyl)sulfonyl)-3-pyridinyl)-5-pyrimidinyl)-1,1,1,3,3,3-hexafluoro-2-propanol] | 103 | 113
Cc1cc(S(=O)(=O)c2ccc(N)nc2)ccc1-c1ncc(C(O)(C(F)(F)F)C(F)(F)F)cn1 [Example 268, 2-(2-(4-((6-amino-3-pyridinyl)sulfonyl)-2-methylphenyl)-5-pyrimidinyl)-1,1,1,3,3,3-hexafluoro-2-propanol] | 103 | 232
